In article doi:10.1101/472670v4 (biorxiv, 2019) one finds inhibition, IC50 and Ki data, which are given here for ten compounds.

The target in assay [1] is T1, PTP1B (human recombinant, kit BML-AK822) (Homo sapiens, UniProt P18031).
T1 sequence (P18031 1-322 limits assumed): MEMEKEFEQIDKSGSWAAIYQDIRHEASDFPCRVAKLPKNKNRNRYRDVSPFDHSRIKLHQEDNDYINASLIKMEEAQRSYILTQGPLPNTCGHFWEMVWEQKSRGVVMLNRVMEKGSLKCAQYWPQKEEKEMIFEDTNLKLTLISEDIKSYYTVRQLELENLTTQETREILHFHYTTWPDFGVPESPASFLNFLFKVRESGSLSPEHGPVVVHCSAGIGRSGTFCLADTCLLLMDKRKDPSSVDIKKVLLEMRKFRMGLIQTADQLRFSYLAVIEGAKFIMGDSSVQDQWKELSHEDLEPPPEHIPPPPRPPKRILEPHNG
Briefly: colorimetric malachite green. It counts as biochemical. The following applies: read-out: % inhibition at 10 µM.

Assay [2] addresses T1, PTP1B (human recombinant, kit BML-AK822). As to the kind of experiment: biochemical. The following applies: read-out: % inhibition at 10 µM.
Assay [3] has the same target. As to the kind of experiment: colorimetric malachite green. The assay is classed as biochemical.
The target is the same in assay [4]. Briefly: Lineweaver-Burk with slope replot. The assay is classed as biochemical.

SMILES strings stand for the structures.

Regarding `COc1ccc(C(=O)N(C2=NCCS2)c2ccccc2C(F)(F)F)cc1` [II, compound II], the inhibition (usually how much of the control response was suppressed) at 10 µM in assay [1] is 48%.
Regarding `Cc1ccc(-c2csc(N(C(=O)c3ccc(Cl)cc3)c3ccc(F)cc3)n2)cc1` [compound 15], the inhibition at 10 µM in assay [1] worked out at 35.2%.
For `Cc1ccc(-c2csc(N(C(=O)CCc3ccccc3)c3ccc(F)cc3)n2)cc1` [compound 16], the inhibition at 10 µM in assay [1] is 33%.
As for `Cc1ccc(-c2csc(N(C(=O)Cc3ccccc3)c3ccc(F)cc3)n2)cc1` [compound 17], the inhibition at 10 µM in assay [2] amounted to 60.3%.
Regarding `COc1ccc(-c2csc(N(C(=O)c3ccc(Cl)cc3)c3ccc(F)cc3)n2)cc1` [compound 18], the IC50 (usually the concentration at which inhibition is half-maximal) in assay [3] was 8.8 µM. The inhibition at 10 µM in assay [2] was 56.9%.
With `COc1ccc(-c2csc(N(C(=O)CCc3ccccc3)c3ccc(F)cc3)n2)cc1` [compound 19], the inhibition at 10 µM in assay [2] turned out to be 74.7%.
On to `O=C(c1ccc(Cl)cc1)N(c1ccc(F)cc1)c1nc(-c2ccccc2)cs1` [compound 21], for which the inhibition at 10 µM in assay [1] stood at 37.2%.
Consider `O=C(CCc1ccccc1)N(c1ccc(F)cc1)c1nc(-c2ccccc2)cs1` [compound 22], for which, in assay [2], the inhibition at 10 µM stood at 69%.
Consider `COc1ccc(CCN(C(=O)CCc2ccccc2)c2nc(-c3ccc(OC)cc3)cs2)cc1` [compound 37], for which, in assay [3], the IC50 came to 6.9 µM. In addition, in assay [2], the inhibition at 10 µM was 69.9%.
As to `COc1ccc(CCN(C(=O)Cc2ccccc2)c2nc(-c3ccc(OC)cc3)cs2)cc1` [compound 38], in assay [3], the half-maximal inhibitory concentration (IC50) worked out at 5.8 µM. Moreover, the inhibition at 10 µM in assay [2] is 76.6%. Also, in assay [4], the Ki (usually the dissociation constant of the complex between target and ligand, obtained from inhibition or displacement) was determined as 8.59 µM.
